In data set [1] the test system is control strain JAR200 that does not express scFv. The data set is described as follows: Flow cytometry, control strain that does not express scFv. As to conditions: 300 nM dyedron, 675/50 bandpass. Format: cell-based, Saccharomyces cerevisiae. The procedure: (§1) FIG. 15. Flow cytometric analysis of dyedron-labeled yeast by exciting donor (blue) or acceptor (red). Saccharomyces cerevisiae cells expressing L5-MG E52D on their surface were analyzed essentially as described in WO 08/092,041 and in Szent-Gyorgyi, C.; Schmidt, B. F.; Creeger, Y.; Fisher, G. W.; Zakel, K. L.; Adler, S.; Fitzpatrick, J. A. J.; Woolford, C. A.; Yan, Q.; Vasilev, K. V.; Berget, P. B.; Bruchez, M. P.; Jarvik, J. W.; Waggoner, A. Nature Biotechnology 2008, 26, 235-240. Two aliquots of each stained population and an unstained control (U) were respectively analyzed, exciting at 532 nm (donor) or 635 nm (acceptor), and collecting emission through a 675/50 nm bandpass (BP) filter. Each analysis comprised 100,000 cells. Stained samples contain a sub-population of non-fluorescent cells due to loss of scFv-encoding plasmid, whose signal corresponds to that of unstained samples (marked by thin lines). Controls show virtually no fluorescence generated by dyedrons on cell surfaces in the absence of expressed FAP (Table 3). Unstained cells excited at 532 nm are relatively brighter than those excited at 635 nm due to higher cellular autofluorescence at the shorter wavelength. Doublet stained peaks correspond to unbudded and budded yeast cells, and are typical for such experiments. Separation of the positive cells from negative cells remains essentially constant under 635 nm excitation but increases in proportion to the number of Cy3 donors under 532 nm excitation. The enhanced excitation in the dyedrons results in increased sensitivity in the flow cytometer.

Data set [2] relates to L5-MG E52D. The data set is classed as physicochemical, human. The settings on record: soluble dyedron/L5-MG E52D complex.
Data set [3] has as its target L5-MG E52D. The data set is classed as binding, human. As to conditions: yeast cell surface displayed L5-MG E52D; PBS+. The procedure:
Microplate fluorometry was carried out on a Tecan Safire2 microplate reader using 96 well microplates with 5×10^6 yeast cells/well.
Yeast JAR200 cells expressing L5-MG E52D were suspended at 10^7 cells/ml in modified PBS+ buffer in the presence of the indicated dyedron concentrations. Fluorescence was read on a Safire2 plate fluorimeter. KD values reported in Table 2 were determined using GraphPad Prism 4 software fits to the one site hyperbolic binding curves shown here. Under these conditions, KD values below 1 nM cannot be determined precisely. Plateau fluorescence levels correspond closely to the relative fluorescence signals seen in flow cytometric analyses using 635 nm laser excitation of the MG band (Table 3).

Data set [4] deals with L5-MG E52D. Format: physicochemical, human. As to conditions: bound to L5-MG E52D; for Relative quantum yield, 514 nm / Relative quantum yield, 532 nm / Relative quantum yield, 561 nm: normalized to 633 nm value; for Relative quantum yield, 633 nm: set to 1.00.
For data set [5], the system named is L5-MG E52D. Format: physicochemical, human. The settings on record: soluble dyedron/L5-MG E52D complex; 620 nm excitation. The procedure:
Fluoromodules were assembled as above, and quantum yields based on the acceptor MG excitation band were determined as described using Cy5.18 as the calibration dye (Szent-Gyorgyi, C., et al., Nature Biotechnology 2008, 26, 235-240). Quantum yields determined with 620 nm excitation (Table 2) were essentially the same as unreported quantum yields determined with 590 nm excitation (<5% difference).

Data set [6] concerns yeast strain JAR200 expressing L5-MG E52D scFv on the cell surface. The data set is described as follows: Flow cytometric quantification of dyedron binding to yeast displayed L5-MG E52D. As to conditions: for increase in specific brightness (factor), 532 nm vs 635 nm staining ratio / 532 laser median / 635 laser median / 532 laser mean / 635 laser mean: 300 nM dyedron; for increase in specific brightness (factor), 532 nm vs 635 nm staining ratio: live yeast; for 532 laser median / 635 laser median / 532 laser mean / 635 laser mean: 675/50 bandpass, JAR200 L5-MG E52D; for 532 laser mean / 635 laser mean: gated positive population; for FACS532/FACS635: median of stained population - median of unstained control. The data set is classed as cell-based, Saccharomyces cerevisiae. The procedure: as §1
For orientation: In flow cytometry, cells or beads pass a laser one at a time.

The nature of data set [7]: Donor array fluorescence of Cy3-labeled cystamine core PAMAM dendrimers. The data set is classed as physicochemical. The procedure: To test the impact of high loading on donor array fluorescence, two cystamine core PAMAM dendrimers (Gen2-16 NH2 and Gen3-32 NH2) were labeled with an excess of monoreactive Cy3-NHS ester. After removal of excess dye by gel filtration the resulting macromolecules were analyzed by electrophoresis, and found to have low net mobility. Because each Cy3 molecule carries one net negative charge, a fully modified dendron should have a net charge of −2. […] However, these conjugates allow for the assessment of the potential risk of donor quenching.

Data set [8] relates to selected scFv. The data set is described as follows: Fluorescence activation of malachite green by selected scFv. The settings on record: in buffer. The data set is classed as biochemical.
Experiment in data set [9]: not given
This is another data set of the same source.

pKd: −log10 of the molar value. Like-named read-outs stand apart in the source and are kept apart here.

These results are taken from US9249306B2, “Quenched dendrimeric dyes for florescence detection” (Carnegie Mellon University, priority 2009, dated 2016).

In data set [1], `CC[N+]1=C(/C=C/C=C2/N(CCCCCC(=O)NCC(CNC(=O)CCCCCN3/C(=C/C=C/C4=[N+](CC)c5ccc(S(=O)(=O)O)cc5C4(C)C)C(C)(C)c4cc(S(=O)(=O)[O-])ccc43)OCC(=O)NCCCOc3ccc(C(=C4C=CC(=[N+](C)C)C=C4)c4ccc(N(C)C)cc4)cc3)c3ccc(S(=O)(=O)[O-])cc3C2(C)C)C(C)(C)c2cc(S(=O)(=O)[O-])ccc21` (centres unmarked) [BCM] came in with a 532 laser mean of 113, a 532 laser median of 84, a 635 laser mean of 105 and a 635 laser median of 64. Further, in [2], the “εmax [M^−1cm^−1]” value is given as 290,000 M^−1cm^−1 and the “εmax [nm]” value is listed as 551 nm. Moreover, in data set [3], the negative logarithm of the Kd (pKd) is 8.40. Moreover, in data set [4], the “Relative quantum yield, 514 nm” value came to 0.92; the “Relative quantum yield, 532 nm” value amounted to 0.86; the “Relative quantum yield, 561 nm” value is 1.31; the “Relative quantum yield, 633 nm” value turned out to be 1.00. Further, the “φMG (quantum yield for MG excitation peak)” value (“φMG” for short) in data set [5] was 0.047. For the same compound, in data set [6], the “increase in specific brightness (factor), 532 nm vs 635 nm staining ratio” value is around 3; the 532 laser median was found to be 6912; the 635 laser median amounted to 2047; the 532 laser mean was 17894. Also, in [6], the 635 laser mean is 5521 and the FACS532/FACS635 was determined as 3.27.
For the compound `CCN1/C(=C\C=C\C2=[N+](CCCCCC(=O)NCCNC(=O)CCCOc3ccc(C(=C4C=CC(=[N+](C)C)C=C4)c4ccc(N(C)C)cc4)cc3)c3ccc(S(=O)(=O)[O-])cc3C2(C)C)C(C)(C)c2cc(S(=O)(=O)[O-])ccc21` [CM, 1-{6-[(2-{[4-(4-{[4-(dimethylamino)phenyl][4-(dimethyliminio)cyclohexa-2,5-dien-1-ylidene]methyl}phenoxy)butanoyl]amino}ethyl)amino]-6-oxohexyl}-2-[(1E,3Z)-3-(1-ethyl-3,3-dimethyl-5-sulfonato-1,3-dihydro-2H-indol-2-ylidene)prop-1-en-1-yl]-3,3-dimethyl-3H-indolium-5-sulfonate], in data set [1], the 532 laser mean worked out at 123, the 532 laser median came to 95, the 635 laser mean worked out at 108 and the 635 laser median amounted to 65. Besides, in [2], the “εmax [M^−1cm^−1]” value is 140,000 M^−1cm^−1 and the “εmax [nm]” value is 552 nm. Besides, in data set [3], the pKd was above 9.00. In addition, in [4], the “Relative quantum yield, 514 nm” value is listed as 1.24; the “Relative quantum yield, 532 nm” value was determined as 1.08; the “Relative quantum yield, 561 nm” value was determined as 1.41; the “Relative quantum yield, 633 nm” value is on record as 1.00. For the same compound, the “φMG” value in data set [5] was determined as 0.057. In addition, in data set [6], the “increase in specific brightness (factor), 532 nm vs 635 nm staining ratio” value is “about 2”; the 532 laser median came to 6170; the 635 laser median was 2793; the 532 laser mean was found to be 15946. In data set [6], the 635 laser mean worked out at 7455 and the FACS532/FACS635 came to 2.17.
As for `CCN1/C(=C\C=C\C2=[N+](CCCCCC(=O)O)c3ccc(S(=O)(=O)O)cc3C2(C)C)C(C)(C)c2cc(S(=O)(=O)[O-])ccc21` [Cy3], the “Estimated Diam. (nm)” value in [7] is on record as 1.5 nm.
In data set [1], `CN(C)c1ccc(C(=C2C=CC(=[N+](C)C)C=C2)c2ccc(OCCCC(=O)NCCNC(=O)CCC(=O)NCCOCCOCCN)cc2)cc1` [M, malachite green diethyleneglycolamine] yielded a 532 laser mean of 111, a 532 laser median of 76, a 635 laser mean of 118 and a 635 laser median of 74. In data set [2], the “εmax [M^−1cm^−1]” value is 79,000 M^−1cm^−1 and the “εmax [nm]” value was determined as 642 nm. Moreover, the pKd in data set [3] is above 9.00. In data set [4], the “Relative quantum yield, 561 nm” value worked out at 1.44 and the “Relative quantum yield, 633 nm” value came out at 1.00. In data set [5], the “φMG” value is 0.055. Moreover, the extinction coefficient (PBS+) was 50,700 M^−1cm^−1. Further, the extinction coefficient (ethanol/5% HAc) was 91,500 M^−1cm^−1. Moreover, in data set [6], the 532 laser median turned out to be 335, the 635 laser median is on record as 2635, the 532 laser mean was determined as 435 and the 635 laser mean came out at 7089. The FACS532/FACS635 in data set [6] is 0.07.
For the compound `CN(C)c1ccc(C(=C2C=CC(=[N+](C)C)C=C2)c2ccccc2)cc1` [Malachite green], the “activation to fluorescent state (fold)” value in data set [8] is given as > 15,000 fold.
As for `CN(C)c1ccc(C(C#Cc2ccc(N(C)CCOCCCC(=O)O)cc2)=C2C=CC(=[N+](C)C)C=C2)cc1.[Cl-]` [acetylenic derivative of malachite green], the “quantum yield in water” value in data set [9] is on record as at most 0.003.

One may read the pKd as the Kd on a negative log10 scale, so that one unit is a factor of ten. Read a low pKd as a high Kd.
